This is an account of results in PubChem BioAssay (NCI).

Holding throughout (assay): DTP human tumour cell line panel, 48 h
Experiment [1] has as its system SF-539 CNS.
Experiment [2] concerns MALME-3M melanoma.
Experiment [3] concerns OVCAR-3 ovarian.
Experiment [4] has as its system BT-549 breast.
The test system of experiment [5] is MCF7 breast.
Experiment [6] relates to T-47D breast.
For experiment [7], the system named is MDA-N.
The subject of experiment [8] is 786-0 renal.
In experiment [9] the test system is SW-620 colon.
Experiment [10] concerns CCRF-CEM leukemia.
Experiment [11] relates to SK-MEL-2 melanoma.
Experiment [12] deals with M14 melanoma.
The subject of experiment [13] is MDA-MB-435.
The test system of experiment [14] is HOP-92 NSCLC.
Experiment [15] concerns NCI-H460 lung.
Experiment [16] concerns TK-10 renal.
For experiment [17], the system named is ACHN renal.
Experiment [18] concerns UO-31 renal.
Experiment [19] has as its system OVCAR-4 ovarian.
Experiment [20] has as its system RXF 393 renal.

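Compound exposure: 48 hours, 5 concentrations, 96-well plates. TGI marks complete inhibition of growth.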

A word on the TGI: it is the concentration giving total growth inhibition. Read a low TGI as more potent growth arrest. As for `CSc1ccc(/C=C/C(=O)c2nc3ccccc3[nH]2)cc1`, the TGI in experiment [1] was more than 100 µM; in experiment [2] it was more than 100 µM; in [3] it was 40.5 µM; in experiment [4], 48.4 µM; in experiment [5] it was 8.97 µM; in experiment [6] it was 29.7 µM. Also, the TGI in experiment [7] was more than 100 µM; in experiment [8] it was 43.6 µM; in experiment [9], 50.3 µM; in experiment [10], more than 100 µM; in experiment [11], 37.7 µM; in [12] it was 36.8 µM. Further, the TGI in experiment [13] was 35.8 µM; in experiment [14], more than 100 µM; in experiment [15], 45.2 µM; in experiment [16], 31.5 µM; in experiment [17], 43.2 µM; in [18] it was 19.9 µM. The compound also returned a TGI in experiment [19] of 76.9 µM.

In the case of `Cn1cc(S(=O)(=O)NC(=O)Nc2ccc(Cl)cc2)c(=O)c2ccc(Cl)cc21`, the TGI in experiment [1], in experiment [2], in experiment [3], in experiment [4], in experiment [5] and in experiment [6] was more than 100 µM in each case. Moreover, the TGI in [20], in [7], in experiment [8], in experiment [9], in experiment [10] and in [11] was more than 100 µM each time. For the same compound, the TGI in experiment [12], in [13], in [15], in experiment [16], in experiment [17] and in experiment [18] was more than 100 µM throughout. Besides, the concentration for total growth inhibition (TGI) in experiment [19] was more than 100 µM.

Take `CCCCCCCCCCCCCCCCC(=O)NCC(=O)NCC(=O)NC(Cc1ccccc1)C(=O)Oc1ccc([N+](=O)[O-])cc1` (stereo unspecified): the TGI in experiment [1] is 46.8 µM; in [3], more than 100 µM; in [4], 34.2 µM; in [5] it was more than 100 µM; in experiment [6], more than 100 µM; in [20], 46.6 µM. The TGI was more than 100 µM in experiment [7]; 72.9 µM in experiment [8]; 37.2 µM in experiment [9]; 44.9 µM in [10]; more than 100 µM in [11]; 41.1 µM in [12]. The total growth inhibition concentration (TGI) in experiment [13] was more than 100 µM; in experiment [14], more than 100 µM; in [15], 38.6 µM; in experiment [16], more than 100 µM; in [17], more than 100 µM; in [18], more than 100 µM. The compound further yielded a TGI in experiment [19] of more than 100 µM.

For the compound `O=P1(N(CCCl)CCCl)Oc2c(Cl)cc(Cl)c(Cl)c2Cc2c(Cl)c(Cl)cc(Cl)c2O1`, the TGI in [1], in [3], in experiment [4], in [5], in [6] and in experiment [20] was more than 100 µM throughout. The TGI was more than 100 µM in experiment [7]; more than 100 µM in experiment [8]; more than 100 µM in experiment [9]; more than 100 µM in experiment [10]; 74.5 µM in experiment [11]; more than 100 µM in [12]. The TGI in experiment [13] was more than 100 µM; in [14], 66.5 µM; in [15] it was more than 100 µM; in experiment [16] it was more than 100 µM; in experiment [17] it was more than 100 µM; in [18] it was more than 100 µM. In experiment [19], this compound showed a TGI of more than 100 µM.

In the case of `CCOC(=O)c1ccc(OCc2nc3cc(C(F)(F)F)ccc3nc2-c2ccccc2)cc1`, the TGI in experiment [1], in [3], in [4], in [5], in [6] and in experiment [20] was more than 100 µM throughout. For the same compound, the TGI in experiment [7], in experiment [8], in experiment [9], in [10], in [11] and in experiment [12] was more than 100 µM in each case. Besides, the TGI in experiment [13], in experiment [14], in experiment [15], in experiment [16], in experiment [17] and in experiment [18] was more than 100 µM in each case. In addition, the TGI in [19] was more than 100 µM.

Turning to `COc1ccc(OC)c2sc(N3C(=O)/C(=C/c4ccc(SC)cc4)N=C3c3ccccc3)nc12`, the TGI in [1] is 58.7 µM; in [3], 53.6 µM; in experiment [4] it was 88 µM; in experiment [5], 48.1 µM; in experiment [6] it was 87 µM; in experiment [7] it was 42.5 µM. Further, the TGI is more than 100 µM in experiment [8]; more than 100 µM in experiment [9]; 22.2 µM in experiment [10]; 42.7 µM in [11]; 46.1 µM in experiment [12]; 37.6 µM in [13]. For the same compound, the TGI in experiment [14] was more than 100 µM; in experiment [15], more than 100 µM; in experiment [16], more than 100 µM; in experiment [17], 86.6 µM; in experiment [18] it was 63.7 µM; in experiment [19], 87.6 µM.

For `CC(=O)O[C@H]1C[C@H]2[C@@H]([C@H](OC(C)=O)C[C@@H]3CC4(CC[C@@]32C)OOC2(CCCCC2)OO4)[C@@H]2CC[C@H]([C@H](C)CCC(N)=O)[C@@]12C`, the TGI in experiment [1] stood at 10.7 µM; in [2] it was 6.82 µM; in [3] it was 3.17 µM; in [4] it was 4.86 µM; in experiment [5], 9.29 µM; in experiment [6], 3.84 µM. The TGI worked out at 10.2 µM in [20]; 3.71 µM in experiment [7]; 3.52 µM in [8]; 5.77 µM in [9]; 3.13 µM in experiment [10]; 4.48 µM in experiment [11]. The TGI in experiment [12] was 9.67 µM; in experiment [13], 3.27 µM; in [15], 5.06 µM; in experiment [16], 6.27 µM; in experiment [17], 3.12 µM; in experiment [18] it was 0.193 µM. Further, the TGI in [19] came to 4.21 µM.

For the compound `C=C1CC(COc2ccc3c(C)c(Cl)c(=O)oc3c2)(c2ccccc2)OC1=O` (stereo unspecified), the TGI came to 7.34 µM in experiment [1]; 3.75 µM in experiment [2]; 6.71 µM in [3]; 2.87 µM in [4]; 5.14 µM in [5]; 4.15 µM in experiment [6]. Besides, the TGI in experiment [7] was 5.48 µM; in experiment [8], 2.95 µM; in [9], 2.62 µM; in [11], 3.36 µM; in experiment [12], 2.24 µM; in experiment [13], 7.6 µM. Further, the TGI in [14] worked out at 3.01 µM; in [15], 23.5 µM; in experiment [16] it was 3.18 µM; in experiment [17], 6.04 µM; in experiment [18], 12.5 µM; in experiment [19], 3.67 µM.

For the compound `Cc1cc(C)c(-n2c(C)c(C)c(C#N)c2N)c(C)c1`, the TGI in experiment [1] is 69.8 µM; in [2], 87.8 µM; in experiment [3] it was more than 100 µM; in experiment [4] it was more than 100 µM; in experiment [6], more than 100 µM; in [20] it was 94.8 µM. Further, the concentration for total growth inhibition (TGI) in experiment [7] was more than 100 µM; in experiment [8] it was more than 100 µM; in [9], more than 100 µM; in experiment [10] it was 45.5 µM; in experiment [11] it was 51.7 µM; in [12] it was more than 100 µM. The TGI in experiment [13] was more than 100 µM; in experiment [14], 74.4 µM; in experiment [15], 78.6 µM; in experiment [16], more than 100 µM; in [17] it was 78.9 µM; in experiment [18], more than 100 µM. Further, in experiment [19], the TGI was more than 100 µM.

Take `CC1OC1P(=O)(O)O` (stereo unspecified): the TGI in [3], in experiment [4], in experiment [5], in [6], in experiment [20] and in [7] was more than 100 µM in each case. In addition, the TGI in [8], in experiment [9], in [10], in experiment [11], in [13] and in experiment [14] was more than 100 µM each time. Besides, the concentration for total growth inhibition (TGI) in experiment [15], in experiment [16], in experiment [17], in experiment [18] and in experiment [19] was more than 100 µM each time.

As for `Cc1cccc(C)c1NC(=O)C(=O)C(c1ccccc1Cl)S(=O)(=O)Cc1ccccc1Cl` (stereo unspecified), the TGI in experiment [1] was 39.2 µM; in experiment [3] it was more than 100 µM; in [4], more than 83.5 µM; in experiment [5], more than 100 µM; in [6], more than 100 µM; in experiment [20], 80.2 µM. In addition, the TGI was more than 100 µM in [7]; more than 71.7 µM in [8]; more than 100 µM in [9]; more than 100 µM in experiment [10]; more than 100 µM in [11]; more than 100 µM in [12]. The TGI in experiment [13] was more than 100 µM; in experiment [14], 44 µM; in [15] it was more than 100 µM; in experiment [16] it was more than 100 µM; in experiment [17], more than 100 µM; in [18], more than 100 µM. The compound further showed a TGI in experiment [19] of more than 100 µM.

Consider `Nc1cc(N2CCOCC2)nc(=O)n1-c1ccccc1`, for which the TGI in experiment [1], in experiment [3], in experiment [4], in [5], in experiment [6] and in [7] was more than 100 µM throughout. The TGI in experiment [8], in experiment [9], in experiment [10], in [11], in experiment [12] and in experiment [13] was more than 100 µM each time. The TGI in [14], in [15], in experiment [17] and in [18] was more than 100 µM in each case.

Regarding `Cc1cccc(-c2cccc(COCc3cccc(-c4cccc(CO)n4)n3)n2)n1`, the TGI in experiment [1], in experiment [3], in experiment [4], in [5], in experiment [6] and in [7] was more than 50 µM each time. Besides, the TGI in experiment [8], in experiment [9], in [11], in experiment [12], in [13] and in experiment [14] was more than 50 µM in each case. Also, the TGI in experiment [15], in experiment [16], in experiment [17], in experiment [18] and in experiment [19] was more than 50 µM each time.

For the compound `Cc1ccc2c(=O)cc(-c3cc4ccccc4s3)[nH]c2n1`, the TGI was more than 100 µM in [2]; more than 100 µM in [3]; more than 100 µM in experiment [4]; more than 100 µM in experiment [5]; 48 µM in [6]; 97.2 µM in experiment [20]. Also, the TGI in [7], in experiment [8], in experiment [9], in [10], in experiment [11] and in experiment [12] was more than 100 µM each time. The TGI in [13] was more than 100 µM; in experiment [15] it was more than 100 µM; in experiment [16], more than 100 µM; in experiment [17], more than 100 µM; in experiment [18] it was 0.17 µM; in [19] it was more than 100 µM.

In the case of `CCOC(=O)CCC(NC(=O)C(CCC(=O)OCC)NC(=O)C(Cc1ccc([N+](=O)[O-])cc1)NC(C)=O)C(=O)NNC(=O)OC(C)(C)C` (stereo unspecified), the TGI was more than 100 µM in experiment [2]; more than 100 µM in [4]; more than 100 µM in experiment [5]; more than 100 µM in experiment [6]; 32.9 µM in experiment [20]; more than 100 µM in [7]. In addition, the TGI in experiment [8], in experiment [9], in [11], in [12], in experiment [14] and in experiment [15] was more than 100 µM each time. The TGI in experiment [16], in experiment [17] and in [18] was more than 100 µM throughout.
